Molecules are shown by their SMILES.

Data set [1] concerns S. aureus KP90-3 (MRSA). Briefly: Antibacterial activity, MIC by agar plate dilution assay. It counts as cell-based. More on the design: unit not given here. The protocol:
(§1) Antibacterial activities of the compounds of the present invention were measured as the minimum inhibitory concentration (MIC) by the agar plate dilution assay method according to the standard method of Japan Society of Chemotherapy. Ofloxacin (OFLX) was used as the control compound.

In data set [2] the test system is E. coli JC3. The description is as above. It counts as cell-based. On the set-up: unit not given here. How it is done:
as §1

In data set [3] the test system is S. aureus Smith. Described as above. It counts as cell-based. More on the design: unit not given here. How it is done: as §1
Data set [4] relates to E. faecalis 1373. The description is as above. It counts as cell-based. More on the design: unit not given here. The protocol: as §1
For data set [5], the system named is S. pyogenes Cook. The description is as above. It counts as cell-based. More on the design: unit not given here. The protocol:
as §1

Data set [6] deals with S. aureus JS1 (MRSA). Described as above. It counts as cell-based. More on the design: unit not given here. How it is done:
as §1

The nature of data set [7]: Acute toxicity test, oral, ICR mice. The following applies: mouse, in vivo, 6-week-old ICR mice, orally, suspended in 0.5% methylcellulose. The protocol: Acute toxicity test was performed using 6-week-old ICR mice. The compound of Example 21a was used as the tested compound. The compound was suspended in a 0.5% solution of methylcellulose, and the suspension was orally administered. The value of LD50 was at least 4000 mg/kg.

In data set [8] the test system is peripheral blood erythrocytes. In words: Mutagenicity, micronucleus assay in mice. It counts as in vivo. The following applies: 8-week-old ICR mice; abdominally administered in olive oil; dose 200 mg/kg; before and 24, 48 and 72 hours after. The protocol: Micronucleus assay was performed using 8-week-old ICR mice to confirm whether the compounds have mutagenicity. The compound of Example 21a was suspended in olive oil, and the suspension was abdominally administered to mice. The peripheral blood was obtained before and 24, 48 and 72 hours after the administration, and smeared specimens of the peripheral blood were prepared by acridine orange dying. In each specimen, 1000 erythrocytes were observed and frequency of occurrence of micronucleus was recorded. The frequency was not changed even in dose 200 mg/kg.

Regarding `COc1c(N2C[C@@H](N)[C@H](C(F)(F)F)C2)c(F)cc2c(=O)c(C(=O)O)cn(C3CC3)c12` (relative stereo) [Example 31a], the “Minimum Inhibitory Concentration (MIC)” value in data set [1] is listed as 3.13; in data set [2] it was 0.39; in data set [3], 0.05; in data set [4] it was 0.39; in data set [5] it was 0.39; in data set [6] it was 0.05.

Take `Nc1c(F)c(N2C[C@@H](N)[C@H](C(F)(F)F)C2)c(F)c2c1c(=O)c(C(=O)O)cn2C1CC1` (relative stereo) [Example 29a]: the “Minimum Inhibitory Concentration (MIC)” value in data set [1] turned out to be 25; in data set [2] it was 0.05; in data set [3], 0.025; in data set [4], 0.39; in data set [5], 0.2; in data set [6] it was 0.05.

With `Cl.NC[C@@H]1CN(c2c(F)cc3c(=O)c(C(=O)O)cn(C4CC4)c3c2F)C[C@H]1C(F)(F)F` (relative stereo) [Example 12a, 7-(Trans-3-aminomethyl-4-trifluoromethyl-1-pyrrolidinyl)-1-cyclopropyl-6,8-difluoro-1,4-dihydro-4-oxoquinoline-3-carboxylic acid hydrochloride], the “Minimum Inhibitory Concentration (MIC)” value in data set [1] amounted to 0.78; in data set [2], 0.05; in data set [3] it was 0.013; in data set [4] it was 0.1; in data set [5] it was 0.025; in data set [6], 0.025.

For the molecule `N[C@@H]1CN(c2c(F)cc3c(=O)c(C(=O)O)cn(C4CC4)c3c2F)C[C@H]1C(F)(F)F` (relative stereo) [Example 23a], the “Minimum Inhibitory Concentration (MIC)” value in data set [1] amounted to 12.5; in data set [2], 0.2; in data set [3] it was 0.1; in data set [4], 0.78; in data set [5] it was 0.78; in data set [6] it was 0.2.

Regarding `CC1COc2c(N3CCN(C)CC3)c(F)cc3c(=O)c(C(=O)O)cn1c23` (centres unmarked) [OFLX, Ofloxacin, reference compound], the “Minimum Inhibitory Concentration (MIC)” value in data set [1] turned out to be 25; in data set [2], 0.1; in data set [3] it was 0.2; in data set [4] it was 1.56; in data set [5], 0.78; in data set [6], 0.39.

As for `N[C@@H]1CN(c2nc3c(cc2F)c(=O)c(C(=O)O)cn3-c2ccc(F)cc2F)C[C@H]1C(F)(F)F` (relative stereo) [Example 35a], the “Minimum Inhibitory Concentration (MIC)” value amounted to 25 in data set [1]; 0.78 in data set [2]; 0.05 in data set [3]; 0.78 in data set [4]; 0.39 in data set [5]; 0.1 in data set [6].

As to `O=C(O)c1cn(C2CC2)c2c(F)c(N3C[C@@H](CO)[C@H](C(F)(F)F)C3)c(F)cc2c1=O` (relative stereo) [Example 6a, 1-Cyclopropyl-6,8-difluoro-1,4-dihydro-7-(trans-3-hydroxymethyl-4-trifluoromethyl-1-pyrrolidinyl)-4-oxoquinoline-3-carboxylic acid], the “Minimum Inhibitory Concentration (MIC)” value in data set [1] turned out to be 3.13; in data set [2], 0.39; in data set [3], 0.025; in data set [4], 0.39; in data set [5] it was 0.39; in data set [6], 0.05.

On to `COc1c(N2C[C@@H](CO)[C@H](C(F)(F)F)C2)c(F)cc2c(=O)c(C(=O)O)cn(C3CC3)c12` (relative stereo) [Example 9a, 1-Cyclopropyl-6-fluoro-1,4-dihydro-7-(trans-3-hydroxymethyl-4-trifluoromethyl-1-pyrrolidinyl)-8-methoxy-4-oxoquinoline-3-carboxylic acid], for which the “Minimum Inhibitory Concentration (MIC)” value in data set [1] is listed as 0.78; in data set [2], 0.39; in data set [3], not above 0.006; in data set [4] it was 0.2; in data set [5], 0.2; in data set [6], 0.013.

Regarding `Nc1c(F)c(N2C[C@@H](CO)[C@H](C(F)(F)F)C2)c(F)c2c1c(=O)c(C(=O)O)cn2C1CC1` (relative stereo) [Example 8a], the “Minimum Inhibitory Concentration (MIC)” value in data set [1] was 3.13; in data set [2] it was 0.2; in data set [3] it was not above 0.006; in data set [4], 0.2; in data set [5], 0.39; in data set [6] it was 0.013.

`COc1c(N2C[C@@H](CN)[C@H](C(F)(F)F)C2)c(F)cc2c(=O)c(C(=O)O)cn(C3CC3)c12` (relative stereo) [Example 21a]: the “Minimum Inhibitory Concentration (MIC)” value in data set [1] is 0.78; in data set [2], 0.1; in data set [3] it was 0.013; in data set [4], 0.1; in data set [5], 0.025; in data set [6], 0.013. For the same molecule, the LD50 in data set [7] is not below 4000 mg/kg. The “frequency of occurrence of micronucleus” value in data set [8] is listed as “not changed”.

For `NC[C@@H]1CN(c2c(F)cc3c(=O)c(C(=O)O)cn(C4CC4)c3c2Cl)C[C@H]1C(F)(F)F` (relative stereo) [Example 15a], the “Minimum Inhibitory Concentration (MIC)” value in data set [1] is 0.39; in data set [2] it was 0.05; in data set [3], not above 0.006; in data set [4], 0.1; in data set [5], 0.013; in data set [6], 0.013.

As to `O=C(O)c1cn(C2CC2)c2c(Cl)c(N3C[C@@H](CO)[C@H](C(F)(F)F)C3)c(F)cc2c1=O` (relative stereo) [Example 7a], the “Minimum Inhibitory Concentration (MIC)” value is 0.39 in data set [1]; 0.39 in data set [2]; not above 0.006 in data set [3]; 0.2 in data set [4]; 0.1 in data set [5]; 0.013 in data set [6].

As to `NC[C@@H]1CN(c2c(F)c(N)c3c(=O)c(C(=O)O)cn(C4CC4)c3c2F)C[C@H]1C(F)(F)F` (relative stereo) [Example 18a], the “Minimum Inhibitory Concentration (MIC)” value is on record as 1.56 in data set [1]; 0.025 in data set [2]; not above 0.006 in data set [3]; 0.05 in data set [4]; 0.013 in data set [5]; not above 0.006 in data set [6].

As to `N[C@@H]1CN(c2c(F)cc3c(=O)c(C(=O)O)cn(C4CC4)c3c2Cl)C[C@H]1C(F)(F)F` (relative stereo) [Example 26a], the “Minimum Inhibitory Concentration (MIC)” value in data set [1] stood at 3.13; in data set [2], 0.2; in data set [3] it was 0.05; in data set [4], 0.39; in data set [5], 0.39; in data set [6], 0.05.

Source of the values: patent US5668147A, “Quinolinecarboxylic acid derivatives and salts thereof” (Kaken Pharmaceutical Co., Ltd., priority 1993, dated 1997).
